Series [1] relates to Trypsin. As to the kind of experiment: Dose response assay for protease inhibitors: trypsin. The class given is biochemical. The conditions noted are these: selectivity, trypsin over Factor XIa. The method, boiled down:
(§1)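 Glp-Pro-Arg-AMC substrate (thrombin, trypsin) or Pro-Phe-Arg-AMC/Boc-Leu-Gly-Arg-AMC (Factor Xa), diluted to 100 μM, in 20 mM Hepes pH 7.4, 150 mM NaCl, 0.02% Tween 20; enzyme diluted to 0.5 nM before addition. Two-fold serial compound dilutions; kinetic reads at 30° C. Data yield IC50 and Kon.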

Series [2] is described as follows: Metabolic stability in dog hepatocytes. Type of series: in vitro ADME. The note with it: pooled cryopreserved hepatocytes; beagle dog hepatocytes, 2 μM compound; read-out: Dog Hepatocyte Stability (t1/2). A digest of the protocol:
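Pooled cryopreserved beagle hepatocytes at 500,000 cells/mL in Krebs-Henseleit buffer with 2 μM compound, 37 °C, 5% CO2, sampled out to 180 min. Acetonitrile-quenched samples analysed by LC-MS/MS; percent remaining from peak area versus time zero.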

The target of series [3] is Thrombin (Homo sapiens (Human), UniProt P00734). As to the kind of experiment: Dose response assay for protease inhibitors: thrombin. The note with it: selectivity, thrombin over Factor XIa. Type of series: biochemical. The method, boiled down:
as §1

The nature of series [4]: Aqueous solubility in PBS by HPLC-UV/VIS. Type of series: physicochemical. The conditions noted are these: phosphate buffered saline, aqueous buffer, kinetic from dmso stock; PBS pH 7.4, 2% DMSO, 24 h at room temperature. A digest of the protocol: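 Compound diluted to 200 μM in PBS pH 7.4 from DMSO stock (2% DMSO final), incubated 24 h at room temperature, then centrifuged. Supernatant analysed by HPLC-UV/VIS; solubility (μM) from principal-peak area versus a 200 μM calibration standard. Range approximately 0.5–200 μM.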

As to `CC[C@@H](NC(=O)N1C(=O)[C@H](Cc2ccnc(N)c2)[C@H]1C(=O)N(C)c1nccn1C)c1ccc(C)nc1` [Compound 1-81, (2S,3R)-3-((2-aminopyridin-4-yl)methyl)-N2-(1-methyl-1H-imidazol-2-yl)-N1-((R)-1-(6-methylpyridin-3-yl)propyl)-N2-methyl-4-oxoazetidine-1,2-dicarboxamide], the “Ratio: Trypsin/FXIa” value in series [1] was “G (“G” indicates 1-100)”. In addition, the half-life at 2 μM in series [2] was in the range of 2.02 to 4 h. In series [3], the “Ratio: Thrombin/FXIa” value is given as “H (“H” indicates 101-1000)”. In series [4], the solubility (as a rule, the concentration that dissolves in the medium under given conditions) at 24 h was greater than 100 µM.

For `CC[C@@H](NC(=O)N1C(=O)[C@H](Cc2ccnc(N)c2)[C@H]1C(=O)N(C)c1nccn1C)c1ccccc1Cl` [Compound 1-83], the “Ratio: Trypsin/FXIa” value in series [1] is recorded as “G (“G” indicates 1-100)”. For the same molecule, the half-life at 2 μM in series [2] was in the range of 2.02 to 4 h. The “Ratio: Thrombin/FXIa” value in series [3] is reported as “H (“H” indicates 101-1000)”. In series [4], this molecule registered a solubility at 24 h greater than 100 µM.

Take `CC[C@@H](NC(=O)N1C(=O)[C@H](Cc2ccnc(N)c2)[C@H]1C(=O)N(C)c1cnn(C)c1)c1ccccc1` [Compound 1-88, (2S,3R)-3-((2-aminopyridin-4-yl)methyl)-N2-(1-methyl-1H-pyrazol-4-yl)-N1-((R)-1-phenylpropyl)-N2-methyl-4-oxoazetidine-1,2-dicarboxamide]: in series [1], the “Ratio: Trypsin/FXIa” value is reported as “G (“G” indicates 1-100)”. Moreover, the half-life at 2 μM in series [2] was greater than 4 h. In series [3], the “Ratio: Thrombin/FXIa” value was “G (“G” indicates 1-100)”. The molecule also came in with a solubility at 24 h in series [4] greater than 100 µM.

Regarding `CC[C@@H](NC(=O)N1C(=O)[C@H](Cc2cc(C)nc(N)c2)[C@H]1C(=O)N(C)c1ccn(C)n1)c1cccc(Cl)c1` [Compound 1-89, (2S,3R)-3-((2-amino-6-methylpyridin-4-yl)methyl)-N2-(1-methyl-1H-pyrazol-3-yl)-N1-((R)-1-(3-chlorophenyl)propyl)-N2-methyl-4-oxoazetidine-1,2-dicarboxamide], the “Ratio: Trypsin/FXIa” value in series [1] is “G (“G” indicates 1-100)”. For the same molecule, the half-life at 2 μM in series [2] is greater than 4 h. The “Ratio: Thrombin/FXIa” value in series [3] is “H (“H” indicates 101-1000)”. The same molecule showed a solubility at 24 h in series [4] greater than 100 µM.

Turning to `CC[C@@H](NC(=O)N1C(=O)[C@H](Cc2ccnc(N)c2)[C@H]1C(=O)N(C)c1cn(C)cn1)c1ccccc1` [Compound 1-90, (2S,3R)-3-((2-aminopyridin-4-yl)methyl)-N2-(1-methyl-1H-imidazol-4-yl)-N1-((R)-1-phenylpropyl)-N2-methyl-4-oxoazetidine-1,2-dicarboxamide], the “Ratio: Trypsin/FXIa” value in series [1] was “G (“G” indicates 1-100)”. In addition, in series [2], the half-life at 2 μM was 2.02 to 4 h. Further, the “Ratio: Thrombin/FXIa” value in series [3] is on record as “H (“H” indicates 101-1000)”. The molecule also gave a solubility at 24 h in series [4] greater than 100 µM.

As to `CC[C@@H](NC(=O)N1C(=O)[C@H](Cc2ccnc(N)c2)[C@H]1C(=O)N(C)c1ccn(C)n1)c1cccc(Cl)c1` [Compound 1-91, (2S,3R)-3-((2-aminopyridin-4-yl)methyl)-N2-(1-methyl-1H-pyrazol-3-yl)-N1-((R)-1-(3-chlorophenyl)propyl)-N2-methyl-4-oxoazetidine-1,2-dicarboxamide], the “Ratio: Trypsin/FXIa” value in series [1] is “G (“G” indicates 1-100)”. Also, the half-life at 2 μM in series [2] fell in the range of 1.02 to 2 h. Moreover, the “Ratio: Thrombin/FXIa” value in series [3] is “H (“H” indicates 101-1000)”. In series [4], the solubility at 24 h is greater than 100 µM.

`CC[C@@H](NC(=O)N1C(=O)[C@H](Cc2ccnc(N)c2)[C@H]1C(=O)N(C)c1ccnn1C)c1ccccc1` [Compound 1-92, (2S,3R)-3-((2-aminopyridin-4-yl)methyl)-N2-(1-methyl 1H-pyrazol-5-yl)-N1-((R)-1-phenylpropyl)-N2-methyl-4-oxoazetidine-1,2-dicarboxamide]: the “Ratio: Trypsin/FXIa” value in series [1] is on record as “G (“G” indicates 1-100)”. In addition, the half-life at 2 μM in series [2] fell in the range of 2.02 to 4 h. In series [3], the “Ratio: Thrombin/FXIa” value is reported as “H (“H” indicates 101-1000)”. In series [4], this molecule had a solubility at 24 h greater than 100 µM.

As for `CC[C@@H](NC(=O)N1C(=O)[C@H](Cc2cc(C)nc(N)c2)[C@H]1C(=O)N(C)c1nccn1C)c1cc(F)ccc1F` [Compound 1-137, (2S,3R)-3-((2-amino-6-methylpyridin-4-yl)methyl)-N2-(1-methyl-1H-imidazol-2-yl)-N1-((R)-1-(2,5-difluorophenyl)propyl)-N2-methyl-4-oxoazetidine-1,2-dicarboxamide], the “Ratio: Trypsin/FXIa” value in series [1] is “G (“G” indicates 1-100)”. The half-life at 2 μM in series [2] was greater than 4 h. Moreover, the “Ratio: Thrombin/FXIa” value in series [3] is “H (“H” indicates 101-1000)”. Further, the solubility at 24 h in series [4] is greater than 100 µM.

For the molecule `CC[C@@H](NC(=O)N1C(=O)[C@H](Cc2cc(C)nc(N)c2)[C@H]1C(=O)N(C)c1ccnn1C)c1ccc(C)c(C)c1` [Compound 1-152, (2S,3R)-3-((2-amino-6-methylpyridin-4-yl)methyl)-N2-(1-methyl-1H-pyrazol-5-yl)-N1-((R)-1-(3,4-dimethylphenyl)propyl)-N2-methyl-4-oxoazetidine-1,2-dicarboxamide], the “Ratio: Trypsin/FXIa” value in series [1] is “G (“G” indicates 1-100)”. Also, the half-life at 2 μM in series [2] was in the range of 1.02 to 2 h. The “Ratio: Thrombin/FXIa” value in series [3] was “I (“I” indicates > 500)”. In addition, in series [4], the solubility at 24 h is greater than 100 µM.

As for `CC[C@@H](NC(=O)N1C(=O)[C@H](Cc2cc(C)nc(N)c2)[C@H]1C(=O)N(C)c1ccnn1C)c1ccc(C)c(F)c1` [Compound 1-155, (2S,3R)-3-((2-amino-6-methylpyridin-4-yl)methyl)-N2-(1-methyl-1H-pyrazol-5-yl)-N1-((R)-1-(3-fluoro-4-methylphenyl)propyl)-N2-methyl-4-oxoazetidine-1,2-dicarboxamide], the “Ratio: Trypsin/FXIa” value in series [1] is reported as “G (“G” indicates 1-100)”. In addition, in series [2], the half-life at 2 μM lay within 2.02 to 4 h. In addition, the “Ratio: Thrombin/FXIa” value in series [3] was “I (“I” indicates > 500)”. The molecule also yielded a solubility at 24 h in series [4] greater than 100 µM.

On to `CC[C@@H](NC(=O)N1C(=O)[C@H](Cc2cc(C)nc(N)c2)[C@H]1C(=O)N(C)c1ccnn1C)c1ccc(F)c(F)c1` [Compound 1-158, (2S,3R)-3-((2-amino-6-methylpyridin-4-yl)methyl)-N2-(1-methyl-1H-pyrazol-5-yl)-N1-((R)-1-(3,4-difluorophenyl)propyl)-N2-methyl-4-oxoazetidine-1,2-dicarboxamide], for which the “Ratio: Trypsin/FXIa” value in series [1] is “G (“G” indicates 1-100)”. Besides, the half-life at 2 μM in series [2] fell in the range of 2.02 to 4 h. In addition, the “Ratio: Thrombin/FXIa” value in series [3] is “I (“I” indicates > 500)”. This molecule came in with a solubility at 24 h in series [4] greater than 100 µM.
